# From publication PMC7611167 (Journal of medicinal chemistry, 2019)
# Legend:
# [1] = target: T1, aldehyde oxidase (AO) (Homo sapiens, UniProt Q06278); assay: Aldehyde oxidase metabolism in human liver cytosol; assay type: in vitro ADME; conditions: 1 μM, 1 mg/mL protein, 37°C, up to 60 minutes, with or without Raloxifene
# T1 sequence (Q06278 1-1338): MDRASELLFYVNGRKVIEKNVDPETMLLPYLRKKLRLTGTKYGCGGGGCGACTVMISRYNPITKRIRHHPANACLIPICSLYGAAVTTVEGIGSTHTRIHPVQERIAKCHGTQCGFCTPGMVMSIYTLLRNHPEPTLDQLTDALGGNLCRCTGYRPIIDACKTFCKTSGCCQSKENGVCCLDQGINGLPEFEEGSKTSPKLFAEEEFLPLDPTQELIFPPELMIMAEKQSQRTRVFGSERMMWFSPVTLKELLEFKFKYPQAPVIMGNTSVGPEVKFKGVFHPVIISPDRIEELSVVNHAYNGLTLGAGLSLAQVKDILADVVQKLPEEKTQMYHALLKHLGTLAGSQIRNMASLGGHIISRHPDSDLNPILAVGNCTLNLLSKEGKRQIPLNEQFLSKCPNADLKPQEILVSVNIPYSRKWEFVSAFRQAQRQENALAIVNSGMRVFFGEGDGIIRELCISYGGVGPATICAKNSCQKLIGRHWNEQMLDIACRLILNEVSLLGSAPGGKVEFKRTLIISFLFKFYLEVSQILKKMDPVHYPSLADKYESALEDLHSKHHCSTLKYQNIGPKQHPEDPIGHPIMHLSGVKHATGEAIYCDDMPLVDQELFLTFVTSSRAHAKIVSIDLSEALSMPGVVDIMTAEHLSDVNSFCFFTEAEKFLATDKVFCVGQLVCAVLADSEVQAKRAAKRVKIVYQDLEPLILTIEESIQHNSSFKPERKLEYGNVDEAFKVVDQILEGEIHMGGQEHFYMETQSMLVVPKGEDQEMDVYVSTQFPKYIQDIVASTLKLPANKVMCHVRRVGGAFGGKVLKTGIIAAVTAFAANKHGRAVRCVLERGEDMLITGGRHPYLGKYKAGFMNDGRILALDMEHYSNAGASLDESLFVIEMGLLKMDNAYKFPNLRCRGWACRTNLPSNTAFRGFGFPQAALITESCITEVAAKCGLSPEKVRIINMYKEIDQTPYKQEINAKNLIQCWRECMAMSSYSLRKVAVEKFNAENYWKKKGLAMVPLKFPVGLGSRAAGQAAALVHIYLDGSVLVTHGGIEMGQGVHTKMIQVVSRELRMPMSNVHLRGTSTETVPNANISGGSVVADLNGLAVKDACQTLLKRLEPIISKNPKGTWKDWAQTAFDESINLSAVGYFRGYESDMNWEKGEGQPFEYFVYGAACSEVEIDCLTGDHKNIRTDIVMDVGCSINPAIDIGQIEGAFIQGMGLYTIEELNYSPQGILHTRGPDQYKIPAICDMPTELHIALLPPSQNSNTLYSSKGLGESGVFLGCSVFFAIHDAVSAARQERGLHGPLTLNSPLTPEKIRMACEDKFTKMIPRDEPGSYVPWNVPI
# [2] = test system: A/Puerto Rico/8/34 (H1N1); assay type: cell-based, influenza A virus
# [3] = target: GSK3β (Homo sapiens, UniProt P49841); assay: Kinase panel, GSK3β; assay type: biochemical; conditions: at 1μM
# GSK3β, sequence (P49841 whole entry, species assumed): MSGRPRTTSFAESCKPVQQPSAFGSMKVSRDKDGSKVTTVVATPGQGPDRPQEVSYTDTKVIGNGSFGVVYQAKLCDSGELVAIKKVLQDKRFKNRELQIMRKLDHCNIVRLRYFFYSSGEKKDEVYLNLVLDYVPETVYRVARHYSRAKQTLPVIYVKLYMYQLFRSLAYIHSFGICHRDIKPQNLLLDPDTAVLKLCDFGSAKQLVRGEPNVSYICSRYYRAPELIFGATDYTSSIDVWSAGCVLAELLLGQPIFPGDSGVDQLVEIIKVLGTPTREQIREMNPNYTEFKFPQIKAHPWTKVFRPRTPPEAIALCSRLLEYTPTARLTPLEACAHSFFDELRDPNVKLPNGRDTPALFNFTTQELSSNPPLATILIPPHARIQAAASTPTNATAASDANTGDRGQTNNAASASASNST
# [4] = test system: influenza A/Puerto Rico/8/34 (H1N1); conditions: mouse, in vivo, po, 30 mg/kg
# [5] = test system: panel of 59 kinases; assay: Kinase panel; assay type: biochemical
smiles,measurement,setting,value
c1ccc2cnncc2c1 [phthalazine],Aldehyde oxidase (AO) metabolism in human liver cytosol,[1],AO metabolism in the normal range
"CCOC(=O)C1=C[C@@H](OC(CC)CC)[C@H](NC(C)=O)[C@@H](N)C1 [Oseltamivir, reference compound]","A/Puerto Rico/8/34 SI (selectivity index, CC50/IC50)",[2],>4132
"O=C(O)[C@H]1C2CCC(CC2)[C@@H]1Nc1nc(-c2c[nH]c3c(F)cc(F)cc23)ncc1F [Compound 11a, (2S,3S)-3-((2-(5,7-difluoro-1H-indol-3-yl)-5-fluoropyrimidin-4-yl)amino)bicyclo [2.2.2]octane-2-carboxylic acid]",GSK3β inhibition,[3],no inhibition
same,Body weight course,[4],regained weight from day 11
same,Activity across a panel of 59 kinases,[5],inactive
"O=C(O)[C@H]1C2CCC(CC2)[C@@H]1Nc1nc(-c2c[nH]c3c(F)cc(Cl)cc23)ncc1F [Compound 11b, (2S,3S)-3-((2-(5-chloro-7-fluoro-1H-indol-3-yl)-5-fluoropyrimidin-4-yl)amino)bicyclo-[2.2.2]octane-2-carboxylic acid]","A/Puerto Rico/8/34 SI (selectivity index, CC50/IC50)",[2],>485
"N#Cc1cc(F)c2[nH]cc(-c3ncc(F)c(N[C@H]4C5CCC(CC5)[C@@H]4C(=O)O)n3)c2c1 [Compound 11d, (2S,3S)-3-((2-(5-cyano-7-fluoro-1H-indol-3-yl)-5-fluoropyrimidin-4-yl)amino) bicyclo[2.2.2]octane-2-carboxylic acid]","A/Puerto Rico/8/34 SI (selectivity index, CC50/IC50)",[2],>612
